Results from ChEMBL document CHEMBL1201862, “PubChem BioAssay data set” (2004).
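Tested at 5 concentrations; 48 h exposure; 96-well plates; endpoints linearly interpolated, else capped at highest concentration. At the GI50, growth is halved.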 The source made the active and inactive calls. Cut-off read from the data, not from the text of the source: active = GI50 up to about 1.1 µM and inactive = higher.

Legend:
Experiment in all cases: NCI anticancer screen, dose series, 48 h
[1] = tested on: BT-549
[2] = tested on: CAKI-1
[3] = tested on: CCRF-CEM
[4] = tested on: HCT-116
[5] = tested on: K562
[6] = tested on: LOX IMVI
[7] = tested on: MDA-MB-231
[8] = tested on: MOLT-4
[9] = tested on: Malme-3M
[10] = tested on: OVCAR-4
[11] = tested on: OVCAR-5
[12] = tested on: SF-268
[13] = tested on: SK-MEL-2
[14] = tested on: SNB-19
[15] = tested on: SR
[16] = tested on: TK-10
[17] = tested on: U-251
[18] = tested on: ACHN
[19] = tested on: HOP-92
[20] = tested on: SF-295

Measured: GI50

CC(C#N)(NO)C(C)(C#N)NO (stereo not drawn)
inactive: [1] > 100 µM | [2] > 100 µM | [3] > 100 µM | [4] > 100 µM | [5] > 100 µM | [6] > 100 µM | [7] > 100 µM | [8] > 100 µM | [9] > 100 µM | [10] > 100 µM | [11] > 100 µM | [12] > 100 µM | [13] > 100 µM | [14] > 100 µM | [15] > 100 µM | [16] > 100 µM | [17] > 100 µM

NCCNCCNc1ccc(NCCNCCN)c2c1C(=O)c1c(O)ccc(O)c1C2=O
inactive: [18] > 100 µM | [1] > 100 µM | [2] > 100 µM | [3] 38.9 µM | [4] > 100 µM | [19] > 100 µM | [5] > 100 µM | [6] > 100 µM | [7] > 100 µM | [8] 14 µM | [9] > 100 µM | [10] > 100 µM | [11] > 100 µM | [12] > 100 µM | [20] 99.3 µM | [14] > 100 µM | [15] 2.21 µM | [16] > 100 µM | [17] > 100 µM

CNc1nc(=S)[nH]c2sc3c(c12)CCCC3
inactive: [18] > 75 µM | [1] > 75 µM | [2] > 75 µM | [4] > 75 µM | [5] > 75 µM | [6] > 75 µM | [7] > 75 µM | [8] > 75 µM | [9] > 75 µM | [10] > 75 µM | [11] > 75 µM | [12] > 75 µM | [20] > 75 µM | [13] > 75 µM | [14] > 75 µM | [15] > 75 µM | [16] > 75 µM | [17] > 75 µM

C[n+]1ccc(/C2=C3\C=CC(=N3)/C(c3cc[n+](C)cc3)=c3/cc/c([nH]3)=C(\c3cc[n+](C)cc3)C3=N/C(=C(/c4cc[n+](C)cc4)C4C=CC2N4)C=C3)cc1
inactive: [18] > 100 µM | [1] > 100 µM | [2] > 100 µM | [3] > 75.7 µM | [4] > 81.1 µM | [19] > 100 µM | [5] > 90.4 µM | [6] > 100 µM | [7] > 100 µM | [8] 95.3 µM | [9] > 100 µM | [10] > 70 µM | [11] > 100 µM | [12] > 100 µM | [20] > 100 µM | [14] > 100 µM | [15] 7.73 µM | [16] > 100 µM | [17] 3.93 µM
